Measured values: patent publication US11980188B2, “Spiro cyclohexanedione derivates as herbicides” (SYNGENTA PARTICIPATIONS AG, priority 2018, dated 2024)

Legend:
Experiment in all cases: Glasshouse herbicide test, pre- and post-emergence, percentage damage
Format in all cases: in vivo
Lolium perenne (LOLPE) = conditions: 250 g/h, evaluated after 13 days, percentage damage on five point scale; for LOLPE POST: post-emergence; for LOLPE PRE: pre-emergence
Protocol: (§1) Seeds of a variety of test species are sown in standard soil in pots (Lolium perenne (LOLPE), Setaria faberi (SETFA), Alopecurus myosuroides (ALOMY), Echinochloa crus-galli (ECHCG), Avena fatua (AVEFA)). After cultivation for one day (pre-emergence) or after 8 days cultivation (post-emergence) under controlled conditions in a glasshouse (at 24/16° C., day/night; 14 hours light; 65% humidity), the plants are sprayed with an aqueous spray solution derived from the formulation of the technical active ingredient in acetone/water (50:50) solution containing 0.5% Tween 20 (polyoxyethelyene sorbitan monolaurate, CAS RN 9005-64-5). Compounds are applied at […]. The test plants are then grown in a glasshouse under controlled conditions in a glasshouse (at 24/16° C., day/night; 14 hours light; 65% humidity) and watered twice daily. After 13 days for pre and post-emergence, the test is evaluated for the percentage damage caused to the plant. The biological activities are shown in the following table on a five point scale (5=80-100%; 4=60-79%; 3=40-59%; 2=20-39%; 1=0-19%).

[1] = tested on: Echinochloa crus-galli (ECHCG); conditions: 250 g/h, evaluated after 13 days, percentage damage on five point scale; for ECHCG POST: post-emergence; for ECHCG PRE: pre-emergence
Protocol: as §1

Avena fatua (AVEFA) = conditions: 250 g/h, evaluated after 13 days, percentage damage on five point scale; for AVEFA POST: post-emergence; for AVEFA PRE: pre-emergence
Protocol: as §1

Setaria faberi (SETFA) = conditions: 250 g/h, evaluated after 13 days, percentage damage on five point scale; for SETFA POST: post-emergence; for SETFA PRE: pre-emergence
Protocol: as §1

[2] = tested on: Alopecurus myosuroides (ALOMY); conditions: 250 g/h, evaluated after 13 days, percentage damage on five point scale; for ALOMY POST: post-emergence; for ALOMY PRE: pre-emergence
Protocol: as §1

Row | SMILES | LOLPE POST (Lolium perenne (LOLPE)) | LOLPE PRE (Lolium perenne (LOLPE)) | ECHCG POST [1] | ECHCG PRE [1] | AVEFA POST (Avena fatua (AVEFA)) | AVEFA PRE (Avena fatua (AVEFA)) | SETFA POST (Setaria faberi (SETFA)) | SETFA PRE (Setaria faberi (SETFA)) | ALOMY POST [2] | ALOMY PRE [2]
1 | CON1CCC2(CC1)CC(=O)C(c1c(C)cc(-c3ncc(Cl)cn3)cc1C)C(=O)C2 [Compound A1] | 5 (5=80-100%) | 5 (5=80-100%) | 5 (5=80-100%) | 5 (5=80-100%) | 5 (5=80-100%) | 5 (5=80-100%) | 5 (5=80-100%) | 5 (5=80-100%) | 5 (5=80-100%) | 5 (5=80-100%)
2 | CON1CCC2(CC1)CC(=O)C(c1c(C)cc(-c3ncc(F)cn3)cc1C)C(=O)C2 [Compound A2, 9-[4-(5-fluoropyrimidin-2-yl)-2,6-dimethyl-phenyl]-3-methoxy-3-azaspiro[5.5]undecane-8,10-dione] | 5 (5=80-100%) | 5 (5=80-100%) | 5 (5=80-100%) | 5 (5=80-100%) | 5 (5=80-100%) | 5 (5=80-100%) | 5 (5=80-100%) | 5 (5=80-100%) | 5 (5=80-100%) | 5 (5=80-100%)
3 | CON1CCC2(CC1)CC(=O)C(c1c(C)cc(-c3ccc(C#N)cn3)cc1C)C(=O)C2 [Compound A3] | 5 (5=80-100%) | 5 (5=80-100%) | 5 (5=80-100%) | 5 (5=80-100%) | 5 (5=80-100%) | 5 (5=80-100%) | 5 (5=80-100%) | 5 (5=80-100%) | 5 (5=80-100%) | 5 (5=80-100%)
4 | CON1CCC2(CC1)CC(=O)C(c1c(C)cc(-n3cc(Cl)cn3)cc1C)C(=O)C2 [Compound A5] | 5 (5=80-100%) | 5 (5=80-100%) | 5 (5=80-100%) | 5 (5=80-100%) | 5 (5=80-100%) | 5 (5=80-100%) | 5 (5=80-100%) | 5 (5=80-100%) | 5 (5=80-100%) | 5 (5=80-100%)
5 | CON1CCC2(CC1)CC(=O)C(c1c(C)cc(-c3ccc(F)cc3)cc1C)C(=O)C2 [Compound A6] | 5 (5=80-100%) | 5 (5=80-100%) | 5 (5=80-100%) | 5 (5=80-100%) | 5 (5=80-100%) | 5 (5=80-100%) | 5 (5=80-100%) | 5 (5=80-100%) | 5 (5=80-100%) | 5 (5=80-100%)
6 | COc1cc(-c2ncc(F)cn2)cc(OC)c1C1C(=O)CC2(CCN(OC)CC2)CC1=O [Compound A8] | 5 (5=80-100%) | 5 (5=80-100%) | 5 (5=80-100%) | 5 (5=80-100%) | 5 (5=80-100%) | 5 (5=80-100%) | 5 (5=80-100%) | 5 (5=80-100%) | 5 (5=80-100%) | 5 (5=80-100%)
7 | COc1cc(-c2ccc(F)cc2)cc(C)c1C1C(=O)CC2(CCN(OC)CC2)CC1=O [Compound A9] | 5 (5=80-100%) | 5 (5=80-100%) | 5 (5=80-100%) | 5 (5=80-100%) | 5 (5=80-100%) | 5 (5=80-100%) | 5 (5=80-100%) | 5 (5=80-100%) | 5 (5=80-100%) | 5 (5=80-100%)
8 | COc1cc(-c2ncc(F)cn2)cc(C)c1C1C(=O)CC2(CCN(OC)CC2)CC1=O [Compound A10] | 5 (5=80-100%) | 5 (5=80-100%) | 5 (5=80-100%) | 5 (5=80-100%) | 5 (5=80-100%) | 5 (5=80-100%) | 5 (5=80-100%) | 5 (5=80-100%) | 5 (5=80-100%) | 5 (5=80-100%)
9 | Cc1cc(-c2ccc(F)cc2)cc(C)c1C1C(=O)CC2(CCN(C(=O)OC(C)(C)C)CC2)CC1=O [Compound A11] | 5 (5=80-100%) | 5 (5=80-100%) | 5 (5=80-100%) | 5 (5=80-100%) | 4 (4=60-79%) | 4 (4=60-79%) | 5 (5=80-100%) | 5 (5=80-100%) | 5 (5=80-100%) | 5 (5=80-100%)
10 | Cc1cc(-c2ccc(F)cc2)cc(C)c1C1C(=O)CC2(CCN(C(=O)NC(C)(C)C)CC2)CC1=O [Compound A57] | 5 (5=80-100%) | 5 (5=80-100%) | 5 (5=80-100%) | 5 (5=80-100%) | 4 (4=60-79%) | 1 (1=0-19%) | 5 (5=80-100%) | 5 (5=80-100%) | – | –
11 | Cc1cc(-c2ccc(F)cc2)cc(C)c1C1C(=O)CC2(CCN(C(=O)NC(=O)c3ccccn3)CC2)CC1=O [Compound A62] | 2 (2=20-39%) | 2 (2=20-39%) | 3 (3=40-59%) | 1 (1=0-19%) | 5 (5=80-100%) | 2 (2=20-39%) | 5 (5=80-100%) | 3 (3=40-59%) | – | –
12 | CCS(=O)(=O)N1CCC2(CC1)CC(=O)C(c1c(C)cc(-c3ccc(F)cc3)cc1OC)C(=O)C2 [Compound A64] | 5 (5=80-100%) | 5 (5=80-100%) | 5 (5=80-100%) | 5 (5=80-100%) | 5 (5=80-100%) | 5 (5=80-100%) | 5 (5=80-100%) | 5 (5=80-100%) | – | –
13 | COc1cc(-c2ccc(F)cc2)cc(C)c1C1C(=O)CC2(CCN(C(=O)c3ccccn3)CC2)CC1=O [Compound A66] | 5 (5=80-100%) | 5 (5=80-100%) | 5 (5=80-100%) | 5 (5=80-100%) | 5 (5=80-100%) | 5 (5=80-100%) | 5 (5=80-100%) | 5 (5=80-100%) | – | –
14 | COCC(=O)N1CCC2(CC1)CC(=O)C(c1c(C)cc(-c3ccc(F)cc3)cc1OC)C(=O)C2 [Compound A67] | 5 (5=80-100%) | 5 (5=80-100%) | 5 (5=80-100%) | 5 (5=80-100%) | 5 (5=80-100%) | 5 (5=80-100%) | 5 (5=80-100%) | 5 (5=80-100%) | – | –
15 | COc1cc(-c2ccc(F)cc2)cc(C)c1C1C(=O)CC2(CCN(C(=O)NC(C)(C)C)CC2)CC1=O [Compound A68] | 5 (5=80-100%) | 4 (4=60-79%) | 5 (5=80-100%) | 5 (5=80-100%) | 5 (5=80-100%) | 4 (4=60-79%) | 5 (5=80-100%) | 5 (5=80-100%) | – | –
16 | COc1cc(-c2ccc(F)cc2)cc(C)c1C1C(=O)CC2(CCN(C(=O)NC(=O)C(C)(C)C)CC2)CC1=O [Compound A69] | 5 (5=80-100%) | 4 (4=60-79%) | 5 (5=80-100%) | 5 (5=80-100%) | 5 (5=80-100%) | 2 (2=20-39%) | 5 (5=80-100%) | 5 (5=80-100%) | – | –
17 | COc1cc(-c2ccc(F)cc2)cc(C)c1C1C(=O)CC2(CCN(C(=O)C3CC3)CC2)CC1=O [Compound A70] | 5 (5=80-100%) | 5 (5=80-100%) | 5 (5=80-100%) | 5 (5=80-100%) | 5 (5=80-100%) | 5 (5=80-100%) | 5 (5=80-100%) | 5 (5=80-100%) | – | –
18 | COc1cc(-c2ccc(F)cc2)cc(C)c1C1C(=O)CC2(CCN(C(=O)C(F)F)CC2)CC1=O [Compound A71] | 5 (5=80-100%) | 5 (5=80-100%) | 5 (5=80-100%) | 5 (5=80-100%) | 5 (5=80-100%) | 5 (5=80-100%) | 5 (5=80-100%) | 5 (5=80-100%) | – | –
19 | COc1cc(-c2ccc(F)cc2)cc(C)c1C1C(=O)CC2(CCN(C(=O)C(C)(C)C)CC2)CC1=O [Compound A72] | 5 (5=80-100%) | 5 (5=80-100%) | 5 (5=80-100%) | 5 (5=80-100%) | 5 (5=80-100%) | 1 (1=0-19%) | 5 (5=80-100%) | 5 (5=80-100%) | – | –
20 | COc1cc(-c2ccc(F)cc2)cc(C)c1C1C(=O)CC2(CCN(C(=O)CC#N)CC2)CC1=O [Compound A74] | 5 (5=80-100%) | 5 (5=80-100%) | 5 (5=80-100%) | 5 (5=80-100%) | 5 (5=80-100%) | 5 (5=80-100%) | 5 (5=80-100%) | 5 (5=80-100%) | – | –
